Results reported in paper PMC11603075 (Communications Biology, 2024).

Columns and labels:
[1] = system: KDM5B; test: MALDI–TOF MS demethylation/+16 Da assay, KDM5B; assay type: biochemical, human; settings: 90 min
Description: (§1) Fig. 2 Histone H2a fragments are KDM5 and KDM4 substrates. […] See Supplementary Table 6 and Supplementary Fig. 2 for assay conditions and quantification, respectively. […] 0-minute MS spectrum in black, 60/90-minute spectrum in red.
(§2) MS-based screening assays with peptides and calf thymus histones were as reported; see Supplementary Table 6 for conditions. Time course assays were based on reported procedures. In brief, equal volumes of the enzyme and substrate solutions were combined to initiate the reaction; 10 µL of 2% (v/v) formic acid (HCOOH) in ddH2O or 100% methanol was added to 10 µL of the reaction mixture to quench reactions at different time points. Unless otherwise stated, time course assays were carried out in triplicate. In some cases, LC–MS was used instead of MALDI-TOF MS to avoid a MALDI matrix induced artefact with the hydroxylated product (Supplementary Fig. 16). […]
(§3) Supplementary Figure 2 Histone H2a peptide fragments are substrates of KDM4s and KDM5s.
(§4) 2 for representative corresponding MALDI–TOF MS traces. Bar graphs comparing % product format ion (+16 Da and demethylation) of H2a(1–20)R3me2a by (a) K DM5 A–D (after 90 minutes) and (b) KDM4A–E ( a ft er 60 minutes), analysed by MALDI– TOF MS. n = (a) 2, (b) 3 (independent assays). See Supplementary Table 6 for assay condit ions. See Figure S13 A 1 for a positive control.
(§5) (also on this page, place not known: formation KDM5A–D (after MALDI–TOF conditions. Figure S13A1 KDM4A KDM4B KDM4C KDM4D KDM4E 80% product formation KDM5A KDM5B KDM5C KDM5D % product formation) […]
(§6) [ E nz ym e] [Peptide] [2OG] [Ascorbate] [(NH4)2F e(S O4)2] [TCEP] Buffer pH7.5 Enzyme Cognate substrate (mM) (mM) (mM) (mM) (mM) (mM) [HE PE S]
(§7) Supplementary Table 6 Summary of MS assay conditions for substrate screening. These conditions enabled efficient turnover of established substrates. Reactions were carried out at 37 °C unless otherwise st ated. […]

[2] = molecular target: T1, KDM5C (Homo sapiens, UniProt P41229); test: MALDI–TOF MS demethylation/+16 Da assay, KDM5C; assay type: biochemical; settings: 90 min
T1 construct: KDM5C 1– 765; made in house; host or cells: Sf9 cells
T1 sequence (P41229 1-765): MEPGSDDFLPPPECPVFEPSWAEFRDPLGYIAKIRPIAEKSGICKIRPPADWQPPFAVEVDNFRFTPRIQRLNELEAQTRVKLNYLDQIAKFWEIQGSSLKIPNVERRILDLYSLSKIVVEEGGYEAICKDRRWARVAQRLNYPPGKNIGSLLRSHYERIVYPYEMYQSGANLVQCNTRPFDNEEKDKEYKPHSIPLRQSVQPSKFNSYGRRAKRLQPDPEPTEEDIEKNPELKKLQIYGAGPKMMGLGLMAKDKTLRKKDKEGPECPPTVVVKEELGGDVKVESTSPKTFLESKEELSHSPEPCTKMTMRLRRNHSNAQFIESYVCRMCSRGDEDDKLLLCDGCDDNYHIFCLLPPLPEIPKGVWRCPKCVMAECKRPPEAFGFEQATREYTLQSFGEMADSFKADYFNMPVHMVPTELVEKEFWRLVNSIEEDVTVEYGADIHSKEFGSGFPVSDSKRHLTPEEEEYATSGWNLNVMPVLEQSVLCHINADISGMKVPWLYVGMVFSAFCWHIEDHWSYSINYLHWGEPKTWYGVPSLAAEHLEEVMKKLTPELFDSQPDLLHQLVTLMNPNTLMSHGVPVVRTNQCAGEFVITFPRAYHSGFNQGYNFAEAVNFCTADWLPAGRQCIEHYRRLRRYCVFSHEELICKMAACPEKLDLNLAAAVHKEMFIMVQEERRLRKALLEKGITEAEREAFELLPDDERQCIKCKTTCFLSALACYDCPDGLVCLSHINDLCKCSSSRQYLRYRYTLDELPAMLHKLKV
Description: as §1, §2, §3, §4, §5, §6, §7

[3] = system: KDM4A1–1064; test: MALDI–TOF MS product formation, full length KDM4A1–1064; assay type: biochemical, human; settings: 60 min; for % product formation: 1 µM enzyme, 10 µM peptide
Method: Supplementary Figure 5 H2aR3me2a is a substrate of full length KDM4A. (a) Representative MALDI–T OF
MS (60 -minute incubation) (from top to bottom) K DM4A 1–1064, KDM4A1–35 9 and KDM4E1–337 w it h H 2 a( 1–
Representative data are shown from n = 3 (independent assays). Charge state of labelled ions: [MH]+. (b)
Bar graph comparing % product format ion of H2a(1 –20)R3me2a by KDM4A1–10 64, KDM4A1–359 and KDM4E1–
33 7, analysed by MALDI–TOF MS. n = 2/3 (independent assays). Conditions: 1 µM KDM4A1–359 and KDM4E1–
(NH4)2Fe(SO4)2, and 50 mM HEPES (pH 7.5), 1 mM TCEP, 0.02% (v/v) Triton-X . […]

[4] = system: KDM5A; test: MALDI–TOF MS demethylation/+16 Da assay, KDM5A; assay type: biochemical, human; settings: 90 min
Description: as §1, §2, §3, §4, §5, §6, §7

Ac - SGR [ me 2a ] GKQ GGKAR AKAKT R SSR [H2a(1–20)R3me2a, H2a(1–20)R3me2a without a biotin tag]
+16 Da (% product formation) ([1]; replicate 1): 0%
demethylation (% product formation) ([1]; replicate 1): 23.54%
+16 Da (% product formation) ([1]; replicate 2): 0%
demethylation (% product formation) ([1]; replicate 2): 18.654%
+16 Da (% product formation) ([2]; replicate 1): 0%
demethylation (% product formation) ([2]; replicate 1): 80.591%
+16 Da (% product formation) ([2]; replicate 2): 0%
demethylation (% product formation) ([2]; replicate 2): 82.588%
% product formation ([3]; replicate 1): 19.2569%
% product formation ([3]; replicate 2): 31.6947%
% product formation ([3]; replicate 3): 39.2291%
–14 Da mass shift (demethylation) ([3]; MALDI–TOF MS, n = 3): –14 Da mass shifts
+16 Da (% product formation) ([4]; replicate 1): 0%
demethylation (% product formation) ([4]; replicate 1): 52.427%
+16 Da (% product formation) ([4]; replicate 2): 0%
demethylation (% product formation) ([4]; replicate 2): 53.348%
